Assay results published in US4400199A, “Thiolcarbamate compounds and their use as herbicides” (priority 1981, dated 1983).
Converted amounts (≈) assume the structure as drawn.

Assays:
[1] = Experiment 3: acute toxicity to fish; type: in vivo, Black-carp fry; settings: carp, water; for LC50 at 48 h: read-out: Median lethal concentration TLm (48hrs); for LC50 at 96 h: read-out: Median lethal concentration TLm (96hrs)
Protocol: With respect to the compounds according to the present invention and the comparative compounds (Compound 10, Compound 12 and Compound 13), there were conducted tests on acute toxicity to carps.
In 25-liter water tanks made of glass was charged 20 liters of water. 12 Black-carp fry were released to each of the water tanks and bred while feeding for 7 days. Then, the whole quantity of water in each of the tanks was replaced with fresh water, and feeding to the carps was stopped. After three days, a prescribed amount of 1 weight % solution of a test compound in acetone was added to water in the water tank.
The number of survival fish in each tank was counted after 24 hours, 48 hours and 96 hours, successively.
The TLm (median tolerance limit=lethal concentration 50%) was determined by the Doudorff's method (Sewage & Ind. Wastes 23 (1951) 1380-1397).

broad-leaf weeds = assay: Experiment 2: herbicidal effects against broad-leaf weeds (pot test, granules); type: in vivo; settings: 25 days
carps = assay: Experiment 4: subacute toxicity to fish; type: in vivo, 2-year-old carps; settings: 0.2 ppm; 3 weeks
Protocol: (§1) With respect to the compounds according to the present invention and the comparative compounds listed in Table 4, there were conducted tests on subacute toxicity to 2-year-old carps having an average weight of 20 g.
(§2) Ten 2-year-old carps were released in each of 25-liter water tanks equipped with an air-blowing apparatus and acclimatized to the surroundings while feeding for 10 days. Water in each of the water tanks was continuously replaced with fresh water so that the residence time of water in the water tanks is 6 hours. Each test compound was added to a predetermined quantity of supply water to prepare a 0.2 ppm aqueous solution of each compound, and each of the aqueous solutions was continuously added to the water in the tank. After three weeks, the hematocrit values of all the survival carps were determined. The hematocrit value used herein is intended to mean a volume percentage of erythrocyte contained in the blood.

[2] = Experiment 4: subacute toxicity to fish; type: in vivo, 2-year-old carps; settings: carp, water; 0.2 ppm; 3 weeks; read-out: Survival rate after 3 weeks
Protocol: as §1, §2

[3] = tested on: barnyard grass (Echinochloa crus-galli); assay: Experiment 1: herbicidal effects against barnyard grass (pot test, emulsifiable concentrate); type: in vivo; settings: 25 days
[4] = tested on: Hotarui (Scirpus juncoides); assay: Experiment 2: herbicidal effects against Hotarui (pot test, granules); type: in vivo; settings: 25 days
barnyard grass = assay: Experiment 2: herbicidal effects against barnyard grass (pot test, granules); type: in vivo, Echinochloa crus-galli; settings: 2.5 leaf-stage, 25 days
[5] = tested on: Mizugayatsuri (Cyperus serotinus); assay: Experiment 2: herbicidal effects against Mizugayatsuri (pot test, granules); type: in vivo; settings: 25 days
[6] = 1.5 leaf-stage of barnyard grass, 150 g/10a.
[7] = 1.5 leaf-stage of barnyard grass, 300 g/10a.
[8] = 1.5 leaf-stage of barnyard grass, 600 g/10a.
[9] = 3 leaf-stage of barnyard grass, 150 g/10a.
[10] = 3 leaf-stage of barnyard grass, 300 g/10a.
[11] = 3 leaf-stage of barnyard grass, 600 g/10a.

Compound: CC1CCC(C)CN(C(=O)SCCCCl)C1 (stereo not drawn) [Compound 6, S-(3-chloropropyl)-3,6-dimethyl-hexahydro-1H-azepine-1-carbothioate]
- LC50 at 48 h [1]: 4.4 µg/mL (≈ 16.7 µM)
- LC50 at 96 h [1]: 3.7 µg/mL (≈ 14 µM)
- Herbicidal activity broad-leaf weeds (broad-leaf weeds; 150 g/10a.): 4 (70 to 89%)
- Herbicidal activity broad-leaf weeds (broad-leaf weeds; 300 g/10a.): 5 (more than 90%)
- Herbicidal activity broad-leaf weeds (broad-leaf weeds; 600 g/10a.): 5 (more than 90%)
- Average Hematocrit Value of survival fish (carps): 34%
- survival at 504 h [2]: 100%
- herbicidal activity (barnyard grass) [3, 6]: 5 (more than 90%)
- herbicidal activity (barnyard grass) [3, 7]: 5 (more than 90%)
- herbicidal activity (barnyard grass) [3, 8]: 5 (more than 90%)
- herbicidal activity (barnyard grass) [3, 9]: 5 (more than 90%)
- herbicidal activity (barnyard grass) [3, 10]: 5 (more than 90%)
- herbicidal activity (barnyard grass) [3, 11]: 5 (more than 90%)
- Herbicidal activity Hotarui (Scirpus juncoides) ([4]; 150 g/10a.): 4 (70 to 89%)
- Herbicidal activity Hotarui (Scirpus juncoides) ([4]; 300 g/10a.): 5 (more than 90%)
- Herbicidal activity Hotarui (Scirpus juncoides) ([4]; 600 g/10a.): 5 (more than 90%)
- herbicidal activity (barnyard grass) (barnyard grass; 150 g/10a.): 5 (more than 90%)
- herbicidal activity (barnyard grass) (barnyard grass; 300 g/10a.): 5 (more than 90%)
- herbicidal activity (barnyard grass) (barnyard grass; 600 g/10a.): 5 (more than 90%)
- Herbicidal activity Mizugayatsuri (Cyperus serotinus) ([5]; 150 g/10a.): 3 (50 to 69%)
- Herbicidal activity Mizugayatsuri (Cyperus serotinus) ([5]; 300 g/10a.): 4 (70 to 89%)
- Herbicidal activity Mizugayatsuri (Cyperus serotinus) ([5]; 600 g/10a.): 5 (more than 90%)

Compound: CC1CCC(C)CN(C(=O)SCCCCCl)C1 (stereo not drawn) [Compound 7, S-(4-chlorobutyl)-3,6-dimethyl-hexahydro-1H-azepine-1-carbothioate]
- LC50 at 48 h [1]: 2.6 µg/mL (≈ 9.36 µM)
- LC50 at 96 h [1]: 2.6 µg/mL (≈ 9.36 µM)
- Herbicidal activity broad-leaf weeds (broad-leaf weeds; 150 g/10a.): 4 (70 to 89%)
- Herbicidal activity broad-leaf weeds (broad-leaf weeds; 300 g/10a.): 5 (more than 90%)
- Herbicidal activity broad-leaf weeds (broad-leaf weeds; 600 g/10a.): 5 (more than 90%)
- Average Hematocrit Value of survival fish (carps): 34%
- survival at 504 h [2]: 100%
- herbicidal activity (barnyard grass) [3, 6]: 5 (more than 90%)
- herbicidal activity (barnyard grass) [3, 7]: 5 (more than 90%)
- herbicidal activity (barnyard grass) [3, 8]: 5 (more than 90%)
- herbicidal activity (barnyard grass) [3, 9]: 5 (more than 90%)
- herbicidal activity (barnyard grass) [3, 10]: 5 (more than 90%)
- herbicidal activity (barnyard grass) [3, 11]: 5 (more than 90%)
- Herbicidal activity Hotarui (Scirpus juncoides) ([4]; 150 g/10a.): 3 (50 to 69%)
- Herbicidal activity Hotarui (Scirpus juncoides) ([4]; 300 g/10a.): 5 (more than 90%)
- Herbicidal activity Hotarui (Scirpus juncoides) ([4]; 600 g/10a.): 5 (more than 90%)
- herbicidal activity (barnyard grass) (barnyard grass; 150 g/10a.): 5 (more than 90%)
- herbicidal activity (barnyard grass) (barnyard grass; 300 g/10a.): 5 (more than 90%)
- herbicidal activity (barnyard grass) (barnyard grass; 600 g/10a.): 5 (more than 90%)
- Herbicidal activity Mizugayatsuri (Cyperus serotinus) ([5]; 150 g/10a.): 3 (50 to 69%)
- Herbicidal activity Mizugayatsuri (Cyperus serotinus) ([5]; 300 g/10a.): 4 (70 to 89%)
- Herbicidal activity Mizugayatsuri (Cyperus serotinus) ([5]; 600 g/10a.): 5 (more than 90%)
